In ChEMBL document CHEMBL1799930, “Novel nanomolar imidazo[4,5-b]pyridines as selective nitric oxide synthase (iNOS) inhibitors: SAR and structural insights” (Bioorg Med Chem Lett, 2011):
Activity calls are given as the source filed them. The rule behind the calls is not given here.

How the values were obtained:
[1] = molecular target: T1, Nitric oxide synthase 3 (Homo sapiens, UniProt P29474); assay: Inhibition of human eNOS assessed as inhibition of [3H]L-arginine to [3H]L-citrulline conversion by scintillation counting
T1 sequence (P29474 whole entry): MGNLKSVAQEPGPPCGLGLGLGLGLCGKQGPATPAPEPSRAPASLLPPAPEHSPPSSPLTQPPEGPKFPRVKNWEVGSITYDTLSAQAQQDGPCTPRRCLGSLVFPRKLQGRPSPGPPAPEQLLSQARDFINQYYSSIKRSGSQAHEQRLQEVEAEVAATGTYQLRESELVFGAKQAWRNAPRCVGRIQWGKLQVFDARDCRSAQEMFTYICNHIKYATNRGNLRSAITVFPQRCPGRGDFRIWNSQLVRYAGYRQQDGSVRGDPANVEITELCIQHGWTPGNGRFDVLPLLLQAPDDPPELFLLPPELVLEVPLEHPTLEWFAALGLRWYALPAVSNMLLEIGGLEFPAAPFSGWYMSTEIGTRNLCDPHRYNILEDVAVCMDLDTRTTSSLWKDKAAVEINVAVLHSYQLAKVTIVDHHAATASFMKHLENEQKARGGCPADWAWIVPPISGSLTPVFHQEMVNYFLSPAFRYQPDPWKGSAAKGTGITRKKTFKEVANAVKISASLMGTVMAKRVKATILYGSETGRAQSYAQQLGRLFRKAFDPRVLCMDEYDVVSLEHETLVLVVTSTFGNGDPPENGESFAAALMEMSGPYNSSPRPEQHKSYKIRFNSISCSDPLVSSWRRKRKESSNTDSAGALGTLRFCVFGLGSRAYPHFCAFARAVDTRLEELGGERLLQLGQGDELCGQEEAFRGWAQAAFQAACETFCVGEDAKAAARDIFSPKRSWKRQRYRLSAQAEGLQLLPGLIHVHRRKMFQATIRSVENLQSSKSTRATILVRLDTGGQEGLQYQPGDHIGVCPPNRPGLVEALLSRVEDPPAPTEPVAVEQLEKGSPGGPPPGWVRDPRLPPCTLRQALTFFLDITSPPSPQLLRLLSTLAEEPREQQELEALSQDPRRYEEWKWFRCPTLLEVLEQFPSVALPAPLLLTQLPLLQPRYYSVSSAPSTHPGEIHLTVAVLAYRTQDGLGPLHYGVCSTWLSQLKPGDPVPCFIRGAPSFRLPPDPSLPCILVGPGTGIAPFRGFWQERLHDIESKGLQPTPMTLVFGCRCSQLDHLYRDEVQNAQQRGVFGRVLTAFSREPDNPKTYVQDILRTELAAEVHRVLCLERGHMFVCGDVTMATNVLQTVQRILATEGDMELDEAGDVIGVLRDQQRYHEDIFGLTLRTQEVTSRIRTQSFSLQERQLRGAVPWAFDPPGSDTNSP

[2] = molecular target: Nitric oxide synthase, inducible (Homo sapiens, UniProt P35228); assay: Inhibition of human iNOS assessed as inhibition of [3H]L-arginine to [3H]L-citrulline conversion by scintillation counting
Chain of Nitric oxide synthase, inducible (P35228 whole entry): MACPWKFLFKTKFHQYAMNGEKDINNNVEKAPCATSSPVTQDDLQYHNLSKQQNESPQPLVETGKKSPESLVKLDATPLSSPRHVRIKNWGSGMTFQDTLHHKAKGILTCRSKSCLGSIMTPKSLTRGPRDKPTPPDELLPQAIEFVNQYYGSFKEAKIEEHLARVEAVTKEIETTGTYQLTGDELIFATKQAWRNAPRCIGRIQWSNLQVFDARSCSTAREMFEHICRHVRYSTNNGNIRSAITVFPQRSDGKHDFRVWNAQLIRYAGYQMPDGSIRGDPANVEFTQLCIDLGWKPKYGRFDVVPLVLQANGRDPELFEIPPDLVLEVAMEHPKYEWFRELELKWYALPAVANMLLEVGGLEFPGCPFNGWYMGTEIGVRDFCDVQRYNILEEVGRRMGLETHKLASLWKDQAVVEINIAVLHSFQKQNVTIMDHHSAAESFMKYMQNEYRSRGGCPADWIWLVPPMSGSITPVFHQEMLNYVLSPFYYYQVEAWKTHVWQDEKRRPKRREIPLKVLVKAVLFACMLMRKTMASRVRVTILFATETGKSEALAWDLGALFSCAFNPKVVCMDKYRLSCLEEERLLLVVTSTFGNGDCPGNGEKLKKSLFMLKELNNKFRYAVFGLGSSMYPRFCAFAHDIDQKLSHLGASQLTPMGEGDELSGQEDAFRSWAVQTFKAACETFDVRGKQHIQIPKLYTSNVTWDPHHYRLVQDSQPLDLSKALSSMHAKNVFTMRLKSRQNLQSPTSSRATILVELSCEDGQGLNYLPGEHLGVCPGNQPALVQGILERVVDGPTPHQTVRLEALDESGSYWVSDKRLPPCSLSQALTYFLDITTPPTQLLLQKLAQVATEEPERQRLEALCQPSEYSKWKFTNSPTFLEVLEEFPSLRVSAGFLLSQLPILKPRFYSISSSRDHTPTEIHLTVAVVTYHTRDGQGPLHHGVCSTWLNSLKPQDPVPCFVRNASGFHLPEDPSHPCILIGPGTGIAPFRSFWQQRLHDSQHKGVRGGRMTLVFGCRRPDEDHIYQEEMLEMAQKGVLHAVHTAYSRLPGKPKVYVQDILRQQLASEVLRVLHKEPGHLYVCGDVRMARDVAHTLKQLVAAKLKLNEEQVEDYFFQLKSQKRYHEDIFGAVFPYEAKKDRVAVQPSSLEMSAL

[3] = molecular target: Nitric oxide synthase 1 (Homo sapiens, UniProt P29475); assay: Inhibition of human nNOS assessed as inhibition of [3H]L-arginine to [3H]L-citrulline conversion by scintillation counting
Chain of Nitric oxide synthase 1 (P29475 whole entry): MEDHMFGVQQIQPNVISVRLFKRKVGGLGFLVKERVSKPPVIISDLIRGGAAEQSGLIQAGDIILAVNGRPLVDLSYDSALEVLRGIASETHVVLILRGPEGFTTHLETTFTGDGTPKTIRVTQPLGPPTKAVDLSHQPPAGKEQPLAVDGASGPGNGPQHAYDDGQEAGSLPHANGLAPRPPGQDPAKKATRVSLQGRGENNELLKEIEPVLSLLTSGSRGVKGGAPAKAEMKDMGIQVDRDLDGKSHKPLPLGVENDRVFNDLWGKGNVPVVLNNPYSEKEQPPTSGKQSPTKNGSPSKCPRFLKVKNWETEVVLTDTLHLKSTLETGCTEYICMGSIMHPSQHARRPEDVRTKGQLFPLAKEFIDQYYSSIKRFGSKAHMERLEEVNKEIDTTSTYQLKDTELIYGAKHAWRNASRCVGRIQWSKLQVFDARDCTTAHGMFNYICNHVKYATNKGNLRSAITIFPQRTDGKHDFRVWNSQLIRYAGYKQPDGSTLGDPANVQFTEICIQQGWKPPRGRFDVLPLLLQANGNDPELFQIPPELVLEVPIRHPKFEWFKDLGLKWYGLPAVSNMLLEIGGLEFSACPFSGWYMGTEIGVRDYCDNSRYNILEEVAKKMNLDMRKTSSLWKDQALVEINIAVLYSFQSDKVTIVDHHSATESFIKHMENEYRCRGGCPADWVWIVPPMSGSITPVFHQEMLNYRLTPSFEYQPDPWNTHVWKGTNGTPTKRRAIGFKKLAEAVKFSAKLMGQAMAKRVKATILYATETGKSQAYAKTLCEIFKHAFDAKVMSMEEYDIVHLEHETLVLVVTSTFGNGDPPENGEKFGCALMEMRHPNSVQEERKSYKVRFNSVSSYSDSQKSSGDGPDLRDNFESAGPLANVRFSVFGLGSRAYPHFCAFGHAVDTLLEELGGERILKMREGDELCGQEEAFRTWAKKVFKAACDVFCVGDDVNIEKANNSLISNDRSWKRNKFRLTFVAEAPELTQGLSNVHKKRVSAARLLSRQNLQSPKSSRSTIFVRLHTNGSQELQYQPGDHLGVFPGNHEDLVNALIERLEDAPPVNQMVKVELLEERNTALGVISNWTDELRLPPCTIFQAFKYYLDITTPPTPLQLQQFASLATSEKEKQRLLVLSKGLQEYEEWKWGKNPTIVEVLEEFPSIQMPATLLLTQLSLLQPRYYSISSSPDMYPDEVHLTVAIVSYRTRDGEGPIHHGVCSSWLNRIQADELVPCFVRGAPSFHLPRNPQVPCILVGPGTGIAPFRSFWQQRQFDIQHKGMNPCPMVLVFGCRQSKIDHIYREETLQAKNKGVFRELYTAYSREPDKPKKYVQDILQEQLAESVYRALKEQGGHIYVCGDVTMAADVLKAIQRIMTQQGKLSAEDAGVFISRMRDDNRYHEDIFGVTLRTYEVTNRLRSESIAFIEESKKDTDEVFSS

[4] = molecular target: T2, Nitric oxide synthase, inducible (Mus musculus) (UniProt P29477); assay: Binding affinity to mouse iNOSox L-arginine binding site by X-ray crystallography
T2 sequence (whole entry): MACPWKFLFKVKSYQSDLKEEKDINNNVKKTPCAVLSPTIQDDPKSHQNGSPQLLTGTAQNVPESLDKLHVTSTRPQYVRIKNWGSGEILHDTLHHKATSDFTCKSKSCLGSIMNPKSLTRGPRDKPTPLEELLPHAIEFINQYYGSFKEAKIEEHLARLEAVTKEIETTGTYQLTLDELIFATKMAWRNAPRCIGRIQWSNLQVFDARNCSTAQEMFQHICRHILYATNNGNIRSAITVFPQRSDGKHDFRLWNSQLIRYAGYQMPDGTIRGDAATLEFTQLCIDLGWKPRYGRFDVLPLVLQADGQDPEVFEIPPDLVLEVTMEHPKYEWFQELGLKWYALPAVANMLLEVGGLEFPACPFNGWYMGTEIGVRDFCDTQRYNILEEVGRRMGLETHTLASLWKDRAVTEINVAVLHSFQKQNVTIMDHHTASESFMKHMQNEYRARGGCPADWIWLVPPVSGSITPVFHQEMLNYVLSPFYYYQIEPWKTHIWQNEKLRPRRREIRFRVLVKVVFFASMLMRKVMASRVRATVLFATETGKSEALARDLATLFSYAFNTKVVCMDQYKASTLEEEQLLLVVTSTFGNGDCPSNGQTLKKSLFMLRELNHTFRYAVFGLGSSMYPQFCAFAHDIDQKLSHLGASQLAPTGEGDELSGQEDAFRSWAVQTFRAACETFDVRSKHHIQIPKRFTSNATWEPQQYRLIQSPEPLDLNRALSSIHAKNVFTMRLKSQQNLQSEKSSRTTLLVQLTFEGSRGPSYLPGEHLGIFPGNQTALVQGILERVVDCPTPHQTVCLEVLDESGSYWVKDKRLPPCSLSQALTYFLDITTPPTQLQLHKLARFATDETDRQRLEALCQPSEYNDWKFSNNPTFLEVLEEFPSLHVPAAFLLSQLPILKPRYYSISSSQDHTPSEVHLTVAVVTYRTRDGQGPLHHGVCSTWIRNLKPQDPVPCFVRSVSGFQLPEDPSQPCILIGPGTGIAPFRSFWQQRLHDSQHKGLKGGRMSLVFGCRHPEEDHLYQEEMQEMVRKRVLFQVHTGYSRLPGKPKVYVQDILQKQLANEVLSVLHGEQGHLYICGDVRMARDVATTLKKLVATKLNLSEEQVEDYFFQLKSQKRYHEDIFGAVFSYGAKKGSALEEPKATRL

[5] = Inhibition of CYP; format: ADME
[6] = molecular target: Cytochrome P450 2C9 (Homo sapiens, UniProt P11712); assay: Inhibition of CYP2C9; format: ADME
Chain of Cytochrome P450 2C9 (P11712 whole entry): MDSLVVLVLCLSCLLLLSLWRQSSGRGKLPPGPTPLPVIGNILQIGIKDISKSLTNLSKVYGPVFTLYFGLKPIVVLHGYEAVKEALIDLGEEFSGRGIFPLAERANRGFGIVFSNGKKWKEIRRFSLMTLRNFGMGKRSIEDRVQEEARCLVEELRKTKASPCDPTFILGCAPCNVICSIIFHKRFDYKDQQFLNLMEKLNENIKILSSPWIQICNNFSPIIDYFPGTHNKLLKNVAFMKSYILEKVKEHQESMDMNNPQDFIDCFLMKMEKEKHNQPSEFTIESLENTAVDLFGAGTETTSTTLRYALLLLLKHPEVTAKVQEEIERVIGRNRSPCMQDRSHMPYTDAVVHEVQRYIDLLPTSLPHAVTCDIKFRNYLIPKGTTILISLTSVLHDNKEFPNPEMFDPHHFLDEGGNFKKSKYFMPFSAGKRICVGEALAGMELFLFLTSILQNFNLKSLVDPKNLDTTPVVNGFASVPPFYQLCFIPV

[7] = Clearance in rat; format: ADME, organism-based; conditions: in vivo
[8] = Cmax in rat; format: ADME, organism-based; conditions: in vivo
[9] = Absolute oral bioavailability in rat; format: ADME, organism-based; conditions: in vivo

Row | IC50 [1] [µM] | IC50 [2] [µM] | IC50 [3] [µM] | SMILES | also measured
1 | > 100 | 4.68 |  | CC(=N)NCCCC[C@H](N)C(=O)O [L-NIL] | 
2 | > 100 | 2.29 | 12.6 | COc1ccnc(CCc2nc3c(C)cc(C)nc3[nH]2)c1 | 
3 | 66.1 | 0.724 | 13.8 | COc1ccnc(CCc2nc3c(OCCc4ccccc4)ccnc3[nH]2)c1 | 
4 | 53.7 | 0.115 | 3.39 | COc1ccnc(CSc2nc3cccnc3[nH]2)c1 | 
5 | 18.2 |  | 1.2 | COc1ccnc(CCc2nc3cc(-c4ccccc4)cnc3[nH]2)c1 | 
6 | > 100 | > 100 | > 100 | CC(=N)NCCCC[C@H](N)C(=O)Nc1nnn[nH]1 | 
7 | 112 |  | 13.8 | COc1ccnc(CCc2nc3ncccc3[nH]2)c1 | IC50 [6]: 3.16 µM; clearance [7]: 36.8 mL/min/kg; Cmax [8]: 2240 ng/mL; bioavailability [9]: 48%
8 | > 100 | 49 | > 100 | COc1ccnc(CSc2nc3ccncc3[nH]2)c1 | 
9 | 1.07 | 0.155 | 0.447 | COc1ccnc(CSC)c1 | 
10 | 204 | 0.776 | 58.9 | COc1ccnc(CCc2nc3c(OC)ccnc3[nH]2)c1 | 
11 | > 100 | 0.0708 | 6.61 | COc1ccnc(NC2CCN(C(=O)c3ccc(C#N)nc3)CC2)c1 | 
12 | 87.1 | 0.055 | 1.91 | CCCCc1cnc2[nH]c(CCc3cc(OC)ccn3)nc2c1 | 

Continued, compound first:

Row | SMILES | IC50 [1] [µM] | IC50 [2] [µM] | IC50 [3] [µM] | also measured
13 | COc1ccnc(CSC)c1OC | > 100 | > 100 | > 100 | 
14 | COc1cnc(CSC)cc1OC | > 100 | > 100 | > 100 | 
15 | COc1ccnc(CCc2nc3c(C)ccnc3[nH]2)c1 | 45.7 | 0.145 | 18.6 | 
16 | COc1ccnc(CCc2nc3ccc(OC)nc3[nH]2)c1 | 100 | 0.38 | 26.3 | 
17 | COc1ccnc(CCc2nc3cccnc3[nH]2)c1 |  |  |  | Activity [4]: Active; pIC50 [5]: < 4
18 | C[C@H]1CC(=N)N[C@@H]2[C@H](Cl)[C@@H]21 |  |  |  | Ki [1]: 0.0186 µM; Ki [2]: 0.00186 µM
19 | COc1ccnc(CSc2nc3ccccc3[nH]2)c1 | 26.3 | 10.7 | 26.9 | 
20 | COCCOc1ccnc2[nH]c(CCc3cc(OC)ccn3)nc12 | 204 | 0.513 | 123 | 
21 | COc1ccnc(CCc2nc3cc(Br)cnc3[nH]2)c1 | 87.1 | 0.186 | 8.32 | 
